Measurements published in patent US6576464B2, “Methods for providing differentiated stem cells” (Geron Corporation, priority 2000, dated 2003).

Assays:
hTERT = hTERT expression by RT-PCR after exposure to differentiation factors; format: cell-based, human; conditions: after exposure of hES cells to the factor
Protocol: For radioactive relative quantification of individual gene products, QuantumRNA™ Alternate18S Internal Standard primers (Ambion, Austin Tex., USA) were employed according to the manufacturer's instructions. Briefly, the linear range of amplification of a particular primer pair was determined, then coamplified with the appropriate mixture of alternare18S primers:competimers to yield PCR products with coinciding linear ranges. Before addition of AmpliTaq™ (Roche) to PCR reactions, the enzyme was pre-incubated with the TaqStart™ antibody (ProMega) according to manufacturer's instructions. Radioactive PCR reactions were analyzed on 5% non-denaturing polyacrylamide gels, dried, and exposed to phosphoimage screens (Molecular Dynamics) for 1 hour. Screens were scanned with a Molecular Dynamics Storm 860 and band intensities were quantified using ImageQuant™ software. Results are expressed as the ratio of radioactivity incorporated into the hTERT or OCT-4 band, standardized to the radioactivity incorporated into the 18s band.
Primers and amplification conditions for particular markers are as follows.

[1] = test system: Undifferentiated hES lines H1 and H7; assay: Comparison of hES lines: total cell number after pGRN376 and GCV; format: cell-based, human; conditions: mock-transduced cells
Protocol: Undifferentiated hES of lines designated H1 and H7 cells were plated into 24 well plates (1 confluent well of a 6 well plate split into 24 wells of a 24 well plate). […] Four h after addition of the viral vector, medium was exchanged for new mEF-CM; some wells received medium supplemented with 20 AM GCV. Cells exposed to GCV were re-fed with mEF-CM containing GCV daily for 3 days. On day 4 after the initiation of GCV treatment, wells were harvested and analyzed by flow cytometry to assess changes in total cell number.

[2] = test system: Undifferentiated H1 hES cells; assay: Titration of GCV in TPAC vector treated hES cells; format: cell-based, human; conditions: hES cells transduced with pGRN376 at MOI 30; 5, 10, 20, 30, 40 μM tested; day 2
Protocol: Undifferentiated H1 cells were plated into 24 well plates (1 confluent well of a 6 well plate split into 24 wells of a 24 well plate). After 48 h, some wells were infected with pGRN376 at an MOI of 30. Four h after addition of the viral vector, medium was exchanged for new mEF-CM; some wells received medium supplemented with 5, 10, 20, 30, or 40 μM ganciclovir (GCV). Cells exposed to GCV were re-fed with MEF-CM containing GCV daily for 2 days. On day 2 after the initiation of GCV treatment, wells were harvested and analyzed by flow cytometry to assess changes in total cell number, and cell viability (measured by PI exclusion).

normal BJ cells = assay: Ganciclovir treatment in vitro of normal cells carrying hTERT promoter/tk constructs; format: cell-based
Protocol: (§1) The ability of the hTERT promoter to specifically drive the expression of the thymidine kinase (tk) gene in tumor cells was tested using a variety of constructs: One construct, designated pGRN266, contains an EcoRI-FseI PCR fragment with the tk gene cloned into the EcoRI-FseI sites of pGRN263. pGRN263, containing approximately 2.5 kb of hTERT promoter sequence, is similar to pGRN150, but contains a neomycin gene as selection marker. pGRN267 contains an EcoRI-FseI PCR fragment with the tk gene cloned into the EcoRI-FseI sites of pGRN264. pGRN264, containing approximately 210 bp of hTERT promoter sequence, is similar to pGRN176, but contains a neomycin gene as selection marker. pGRN268 contains an EcoRI-XbaI PCR fragment with the tk gene cloned into the EcoRI-XbaI (unmethylated) sites of pGRN265. pGRN265, containing approximately 90 bp of hTERT promoter sequence, is similar to pGRN175, but contains a neomycin gene as selection marker.
(§2) These hTERT promoter/tk constructs, pGRN266, pGRN267 and pGRN268, were reintroduced into mammalian cells and tk/+stable clones (and/or mass populations) were selected. […] Ganciclovir treatment had no effect on normal BJ cells.

[3] = test system: tumor lines 143B, 293, HT1080, Bxpc-3', DAOY and NIH3T3; assay: Ganciclovir treatment in vitro of tk+ tumor lines carrying hTERT promoter/tk constructs; format: cell-based; conditions: tk/+ stable clones or mass populations with pGRN266, pGRN267, pGRN268
Protocol: as §1, §2

H9 hES cell line clones = assay: Ganciclovir sensitivity screen of stable GRN376mod-transfected hES clones; format: cell-based, human; conditions: ten of ninety GRN376mod clones; ganciclovir at a concentration of 30 μg
Excerpt: To facilitate creation of stable cell lines genetically altered with the hTERT promoter/thymidine kinase construct, plasmid pGRN376 (Example X) was modified to delete most of the adenovirus sequence. The plasmid was digested with Stul and Not I, followed by blunting and re-ligation. The remaining vector contained the hTERT promoter/thymidine kinase construct, preceded by the transcription blocking sequence to prevent promotion of tk gene expression by promoter sequences upstream from the integration site in the genome. The modified vector was designated pGRN376mod.
Cultures of the H9 hES cell line were split 1:4 using PBS containing 0.5 mM EDTA, as described earlier, and plated in feeder-free culture in 6-well plates. Twenty-four hrs after plating, cells were cotransfected with 2 μg GRN376mod plus 0.5 μg of a plasmid encoding neomycin pho, using FuGENETM-6 as described above. Medium containing 200 μg/mL geneticin was added 48 h after transfection to select out transfected cells. After 7-10 days in geneticin-containing medium, 103 individual colonies were picked from the wells and individually plated in 24-well plates, which were then expanded by culturing for ˜7 days. Ninety individual clones were screened for sensitivity to the pro-drug ganciclovir at a concentration of 30 μg. […]

H1 hES cells = assay: Stable transfection of feeder-free hES cells with geneticin selection; format: cell-based, human; conditions: 200 μg/mL in mEF-conditioned medium
Protocol: To investigate whether the feeder-free hES cells undergo stable genetic modification, H1 hES cells maintained on Matrigel® were cotransfected with a mixture of 7.5 μg plasmid carrying β-galactosidase driven by the EF1a promoter, and 2.5 μg of plasmid carrying the PGK promoter driving the neophosphotransferase gene. The cells were transfected 48 h after plating them on Matrigel® in mEF-conditioned medium. 10 μg of plasmid plus 15 μl of FuGENE™ were incubated with the cells in 1 mnL for 4 h before adding 2.5 mL of mEF-conditioned medium. After 48 h, medium was exchanged for mEF-conditioned medium supplemented with 200 μg/mL geneticin. Cultures were maintained in this geneticin-containing medium with daily medium exchange for over 21 days. All mock-transfected cultures (i.e., those that received FUGENE™ mixed with water rather than plasmid) died within 48-72 h. Drug resistant colonies arose in the wells transfected with both FUGENE™ and plasmid at a frequency of about 1 in to 10^5 originally transfected cells. The colonies were maintained in geneticin-containing mEF-conditioned medium and expanded.

hES cells = assay: Neuron formation from directly differentiated hES cells with neurotrophin growth factors (count of β-tubulin positive cells); format: cell-based, human; conditions: fixed after 7 days of differentiation
Protocol: The effect of several members of the neurotrophin growth factor family was examined. hES cells were differentiated by harvesting with collagenase, dissociating, and reseeding onto poly-ornithine coated cover slips. The cells were plated into DMEM/F12+N2+10% FBS overnight. The following day, the serum was removed from the medium and replaced with 10 ng/mL human bFGF and the growth factor being tested. After 24 hours, bFGF was removed from the medium. These cultures were fed every other day. They were fixed after 7 days of differentiation and immunostained for analysis. The number of neurons was evaluated by counting cells positive for β-tubulin. Cultures maintained in the presence of 10 ng/mL brain derived neurotrophic factor (BDNF) formed approximately 3-fold more neurons than the control cultures. Cultures maintained in neurotrophin-3 (1 ng/mL) formed approximately 2-fold more neurons than control cultures.

C[S+](C)[O-] [dimethyl sulfoxide]
expression of hTERT (hTERT): markedly decreased

Nc1nc(O)c2ncn(COC(CO)CO)c2n1 [ganciclovir]
toxicity induced by GCV alone, H7 compared with H1 [1]: less toxicity
optimal GCV concentration [2]: ~20 µM
effect of ganciclovir treatment on normal cells (normal BJ cells): no effect
effect of ganciclovir treatment on tk+ tumor lines [3]: selective destruction of all tumor lines tested
time in which essentially all undifferentiated cells died (H9 hES cell line clones): 1 to 3 days

CN[C@@H]1[C@@H](O)[C@@H](O[C@@H]2[C@@H](O)[C@H](O[C@H]3O[C@H]([C@@H](C)O)[C@@H](O)[C@H](O)[C@H]3N)[C@@H](N)C[C@H]2N)OC[C@]1(C)O [geneticin]
time in which all mock-transfected cultures died (H1 hES cells): 48 to 72 h

B1: brain derived neurotrophic factor (protein, UniProt P23560 19-247, looked up)
Neurotrophic factor BDNF …: APMKEANIRGQGGLAYPGVRTHGTLESVNGPKAGSRGLTSLADTFEHVIEELLDEDQKVRPNEENNKDADLYTSRVMLSSQVPLEPPLLFLLEEYKNYLDAANMSMRVRRHSDPARRGELSVCDSISEWVTAADKKTAVDMSGGTVTVLEKVPVSKGQLKQYFYETKCNPMGYTKEGCRGIDKRHWNSQCRTTQSYVRALTMDSKKRIGWRFIRIDTSCVCTLTIKRGR
notes: neurotrophin growth factor
neurons formed relative to control cultures (cells positive for β-tubulin) (hES cells; 10 ng/mL): approximately 3 fold

B2: neurotrophin-3 (protein, UniProt P20783 139-257, looked up)
Neurotrophin-3: YAEHKSHRGEYSVCDSESLWVTDKSSAIDIRGHQVTVLGEIKTGNSPVKQYFYETRCKEARPVKNGCRGIDDKHWNSQCKTSQTYVRALTSENNKLVGWRWIRIDTSCVCALSRKIGRT
notes: neurotrophin growth factor
neurons formed relative to control cultures (cells positive for β-tubulin) (hES cells; 1 ng/mL): approximately 2 fold
